# In patent publication US20040132706A1, “Composition comprising a catalyst for the dismutation of superoxide and use of the composition for preventing and treating hypotension” (priority 2003, published 2004):
# “Also recorded” adds a separate entry of the source.
# Key:
# [1] = test system: O2− generated by hypoxanthine/xanthine oxidase (HX/XO); assay: Deactivation of catecholamines by hypoxanthine/xanthine oxidase superoxide generating system, HPLC detection; format: biochemical; conditions: HX 2 mM / XO 1 U/ml, n=6; for chemical detection of the catecholamines by HPLC after exposure to HX/XO: no SOD mimetic
# Description: Catecholamine measurements. Catecholamines in test tube samples or plasma samples were identified and quantified by high pressure liquid chromatography with electrochemical detection (HPLC-EC). The system consists of a Varian model 2510 solvent delivery system and a model 9090 autosampler (Varian, Walnut Creek, Calif.) coupled to a C18 column and an ESA Coulochem II detector. Separations were performed isocratically using a filtered and degassed mobile phase consisting of 10% methanol, 0.1 M sodium phosphate, 0.2 mM sodium octyl sulfate and 0.1 mM EDTA, adjusted to pH 2.8 with phosphoric acid. The HPLC system is coupled to a PS-90 computer with which chromatograms were recorded and analyzed with Varian Star workstation software.
# Hypoxanthine (HX;2 mM)/xanthine oxidase (XO; 1 U/ml) results in the generation of O2^− in the ratio of 2 molecules of O2^− to every one molecule of HX used.
# anaesthetized rat [2] = assay: LPS-induced hyporeactivity to exogenous norepinephrine in the anaesthetized rat; format: in vivo, Male Sprague Dawley rats
# Description: (§1) Anaesthetized Rat Model. Male Sprague Dawley rats (250-300 g) were anaesthetized with inactin (100 mg/Kg intraperitoneally). The trachea was cannulated to facilitate respiration and body temperature was maintained at 37° C. by means of a heating pad. The left femoral vein was cannulated for administration of drugs. The left femoral artery was cannulated and connected to a pressure transducer to allow for the monitoring of blood pressure. Lipopolysaccharide from E. coli (LPS; 4 mg/Kg, serotype 0111:B4) was administered as a bolus intravenous injection at a volume of 0.3 ml. Control animals received saline at the same volume and by the same route. In experiments involving blood samples, such blood samples were withdrawn from the arterial cannula.
# Injection of E. coli lipopolysaccharide (LPS) to rats leads to the development of hyporeactivity to exogeneously administered norepinephrine which typically occurs in the first two hours. Male Sprague Dawley rats (250-300 g, number in group) were anaesthetized and prepared according to the methods of Example 1. Increasing dosages of norepinephrine (0.1, 0.5 and 1 mg/Kg) were given as intravenous bolus injections. Animals in a control group received saline at the same volume and by the same route. The left femoral artery was cannulated and connected to a pressure transducer to allow for the monitoring of blood pressure during the experiment. The change in the blood pressure of the animals was compared to the blood pressure of animals in the control group. […] Pressor responses to norepinephrine in rats not treated with LPS were unaffected by the SOD mimetic M40403 (FIG. 2; n=6).
# Injection of E. coli lipopolysaccharide (LPS) to rats leads to the development of hyporeactivity to exogeneously administered norepinephrine which typically occurs in the first two hours. Male Sprague Dawley rats (250-300 g, number in group) were anaesthetised and prepared according to the methods of Example 1. Increasing dosages of norepinephrine (0.1, 0.5 and 1 mg/Kg) were given as intravenous bolus injections. Animals in a control group received saline at the same volume and by the same route. The left femoral artery was cannulated and connected to a pressure transducer to allow for the monitoring of blood pressure during the experiment. The change in the blood pressure of the animals was compared to the blood pressure of animals in the control group.
# anaesthetized rat [3] = assay: LPS-induced hypotension and mortality in the anaesthetized rat; format: in vivo, Male Sprague Dawley rats
# Description: as §1
# Intravenous injection of LPS (4 mg/Kg) in rats led to a profound fall in blood pressure associated with a high mortality rate (99±5% mortality at 9 hours, n=10, FIG. 3). Furthermore, the plasma levels of norepinephrine as well as the adrenochromes increased after LPS treatment (FIGS. 4a,b,c; n=10). Levels of the catecholamines and of the adrenochromes could not be evaluated at the 9 h timepoint (survival rate at this point was 1%, n=10).
# (FIG. 3; n=10). Inhibition of hypotension by M40403 was associated with increased levels of catecholamines (FIGS. 4a and b) and concommittant decrease (FIG. 4c; n=10) in plasma levels of the adrenochromes, the reaction products of O2^− and these catecholamines. In addition, when the administration of M40403 was postponed until 5 hours post LPS in this model the severe hypotensive phase of this condition was reversed (FIG. 3; n=10).
# When 15 mg/Kg of 5,10,15,20-tetrakis (2,4,6-trimethyl-3,5-disulfonatophenyl)-porphyrinato iron (III) (FeTMPS) was administered (i.v bolus injection 1 hour after LPS), the development of hypotension was prevented.
# anaesthetized rat [4] = assay: Pressor effect of norepinephrine incubates on MAP in the anaesthetized rat; format: in vivo, Male Sprague Dawley rats; conditions: n=6
# Description: as §1
# Male Sprague Dawley rats (250-300 g, 6 rats per group) were anaesthetized and prepared according to the methods of Example 1. 0.5 mg/Kg of norepinephrine was administered as an intravenous (i.v) bolus injection through the left femoral vein. Animals in a control group received saline at the same volume and by the same route. The left femoral artery was cannulated and connected to a pressure transducer to allow for the monitoring of blood pressure during the experiment. The change in the blood pressure of the animals was compared to the blood pressure of animals in the control group. The results of the tests can be found in FIG. 1. Norepinephrine raised the MAP of the rats by 34±3.7 mmHg (FIG. 1b; n=6). […] When SOD mimetic M40403 was included with HX/XO in the incubation mixture, the vasopressor actions of were protected as shown by its ability to restore MAP back to near control values (38±3.6 mmHg) (FIG. 1b; n=6).
# [5] = Plasma catecholamine and adrenochrome concentrations after LPS; format: in vivo, Male Sprague Dawley rats; conditions: M40403 0.25 mg/Kg/h given at 1 h post LPS 4 mg/Kg i.v.; n=10
# Description: as §1, with “In experiments involving blood samples, such blood samples were withdrawn from the arterial cannula.” left out
# Catecholamine measurements. Catecholamines in test tube samples or plasma samples were identified and quantified by high pressure liquid chromatography with electrochemical detection (HPLC-EC). […] The HPLC system is coupled to a PS-90 computer with which chromatograms were recorded and analyzed with Varian Star workstation software.
# Adrenochrome measurements. The detection and quantification of the sum of the noradrenochrome and adrenochrome was carried out using an HPLC method utilising a Vydac C18 Pharmaceutical 4.6×250 mm column and with a 5% acetonitrile+95% SDS (10 mM) mobile phase (5 min elution), then 40% acetonitrile with 60% SDS plus 0.1% TFA (5 min elution) mobile phase, all eluted at […]. […]
compound,measurement,setting,value
CNC[C@H](O)c1ccc(O)c(O)c1 [epinephrine],chemical detection of the catecholamines by HPLC after exposure to HX/XO,[1],significant decreases
"5,10,15,20-tetrakis (2,4,6-trimethyl-3,5-disulfonatophenyl)-porphyrinato iron (III) [FeTMPS]",hyporeactivity to exogenous norepinephrine after LPS,anaesthetized rat [2]; FeTMPS 15 mg/kg given at 1 h post LPS 4 mg/Kg,prevented; also recorded: reversed
same,reactivity to norepinephrine in saline treated rats,"anaesthetized rat [2]; FeTMPS, saline treated rats, n=6",not significantly affected
same,"fall in MAP after LPS, therapeutic treatment",anaesthetized rat [3]; FeTMPS 10 mg/Kg/h at 1 h post LPS 4 mg/Kg i.v. (FIG. 7),prevents
same,"fall in MAP after LPS, prophylactic treatment",anaesthetized rat [3]; FeTMPS 10 mg/Kg/h at 1 h post LPS 4 mg/Kg i.v. (FIG. 8),prevents
same,development of hypotension after LPS,anaesthetized rat [3]; FeTMPS 15 mg/Kg i.v. bolus injection 1 hour after LPS,prevented
[Cl-].[Cl-].[Mn+2].c1cc2nc(c1)CN[C@@H]1CCCC[C@H]1NCCN[C@@H]1CCCC[C@H]1NC2 [M40403],reduction of chemical detection (HPLC) of norepinephrine and epinephrine after incubation with HX/XO,"[1]; M40403 10^−6 M, incubation 5 min",prevented
same,ability of norepinephrine to increase MAP after incubation with HX/XO,"anaesthetized rat [4]; M40403 in the incubate, incubation 5 min, norepinephrine 0.5 mg/Kg bolus i.v.",preserved
same,increase in MAP by norepinephrine incubated with HX/XO plus M40403,"anaesthetized rat [4]; norepinephrine 0.5 mg/Kg i.v. bolus, M40403 included in HX/XO incubation mixture",38±3.6 mmHg
same,pressor responses to norepinephrine two hours after LPS,"anaesthetized rat [2]; M40403 0.25 mg/Kg, 15 min i.v. infusion 1 hour after LPS 4 mg/Kg, norepinephrine 0.1, 0.5 and 1 mg/Kg",restored
same,hyporeactivity to norepinephrine after LPS,"anaesthetized rat [2]; M40403 1 mg/Kg, LPS 4 mg/Kg, norepinephrine 0.1-1 mg/Kg, n=6",reversed
same,reactivity (pressor responses) to norepinephrine in rats not treated with LPS,"anaesthetized rat [2]; saline treated rats, M40403, n=6",unaffected; also recorded: not affected
same,fall in MAP (severe hypotensive phase) after LPS,"anaesthetized rat [3]; M40403 0.25 mg/Kg administered at 5 h post LPS 4 mg/Kg i.v., n=10",reverses
same,survival by 9 h,"anaesthetized rat [3]; M40403 0.25 mg/Kg/h i.v. infusion 1 hour post LPS 4 mg/Kg, n=10",99±2%
same,fall in MAP (development of hypotension) after LPS,"anaesthetized rat [3]; M40403 0.25 mg/Kg/h i.v. infusion from 1 h post LPS 4 mg/Kg i.v., n=10",prevents
same,plasma concentrations of adrenochromes versus LPS alone,[5],decrease; also recorded: significantly lower
same,plasma concentrations of epinephrine and norepinephrine versus LPS alone,[5],increased; also recorded: significantly higher
"NC[C@H](O)c1ccc(O)c(O)c1 [norepinephrine, reference compound]",chemical detection of the catecholamines by HPLC after exposure to HX/XO,[1],significant decreases
same,increase in MAP by norepinephrine after incubation with HX/XO,"anaesthetized rat [4]; norepinephrine 0.5 mg/Kg i.v. bolus, incubated with HX/XO",17±2.5 mmHg
same,increase in MAP by norepinephrine,"anaesthetized rat [4]; norepinephrine 0.5 mg/Kg i.v. bolus, not incubated",34±3.7 mmHg
